Assay results taken from patent US20230121771A1, “A PHARMACEUTICAL COMBINATION OF AN ARTEMISININ COMPOUND, 5-AMINOLEVULINIC ACID OR METHYL-5-AMINOLEVULINIC ACID AND A CHEMOTHERAPEUTIC AGENT” (JLP Health GmbH, priority 2020, published 2023).
Starred links: 1 amine or outer side, 2 acyl side, 3 side chain; linkers in the order of their positions; H or OH if unused. Positions of bridges follow the written chain, without caps; N, C: chain ends. Non-standard residues stand in square brackets, D forms with d. Residues, ends and D or L forms follow the SMILES beside them. Chains are numbered I, II in the order given. Actinocin(9to1) = Cc1c2oc3c(C)ccc(C(=O)[*:1])c3nc-2c(C(=O)[*:2])c(N)c1=O; NMeV = CN[C@H](C(=O)O)C(C)C; Sar = CNCC(=O)O

Tests used:
[1] = tested on: cancer cell lines originating from other tissues; assay: 6-day cell survival assay, cancer cell lines originating from other tissues (summary); format: cell-based; conditions: lung, liver, breast, pancreas lines
Procedure: Cell survival assays (FIGS. 12-19) were performed in 96-well plates in technical duplicates. Treatments started 24 hours post cell plating and lasted for 6-days prior to cell viability assessment with the Cell Titer Glo 2.0 Luminescent assay (Promega, G9242).

[2] = tested on: mouse ESCs; assay: Cell survival of artemisinin treated mouse embryonic stem cells (Alamar Blue, 48 h); format: cell-based; conditions: artemisinin combined with acifluorfen or 5-ALA (0.5 mM)
Procedure: For dosage responses, cells were seeded in 96-wells (25.000/ 96-well, in triplicate -where indicated) and subjected to compounds for 48 h. Cell viability was assessed using automated cell counting (high-throughput flow cytometry), Alamar Blue staining (Invitrogen, DAL1100) or CellTiter-Glo Luminescent Assay (Promega, G7570, according to the manufacturer’s protocol) respectively.

[3] = tested on: mouse ESCs; assay: Competitive growth assay of wild-type and knockout sister ESC clones in presence of artemisinin; format: cell-based; conditions: mixed labelled cells, artemisinin exposure, flow cytometry
Procedure: Haploid ESCs harbouring gene traps in nomic introns were seeded at low density in normal ESC growth medium and infected for 12 h with two viruses, one encoding mCherry plus Cre recombinase and the other coding for GFP, both together with puromycin (Invivogen, ant-pr-1). Infected cells were selected (final concentration of puromycin, 1 µg/ml) after 24 h and expanded. Ratios of GFP- to mCherry/Cre-expressing cells in the presence and absence of artemisinin were determined using high-throughput flow cytometry (BD LSRFortessa HTS Cell Analyzer).

[4] = tested on: neuroblastoma cells (SHSY5Y), Jurkat and HL-60 cells; assay: ROS levels by Dihydroethidium (DHE) staining and flow cytometry in cell lines; format: cell-based; conditions: artemisinin alone; Jurkat and HL-60 cells, 48 h
Procedure: Treated cells were collected, washed with 1x HBSS (without Ca2+ and Mg2+), incubated with 1mM DHE (Dihydroethidium (Hydroethidine), Invitrogen, D11347) in 1x HBSS for 45 min at 37° C., washed twice and counterstained with DAPI or a viability dye (eBioscience™ Fixable Viability Dye eFluor™ 780, 65-0865-18) for 10 min on ice. Cells were then collected, strained and analysed using flow cytometry for DHE in the red fluorescent spectrum (PE channel).

[5] = tested on: human cerebral tumor organoids (CNS-PNET); assay: Compound profiling in CNS-PNET cerebral tumor organoids (GFP-positive tumor cells); format: cell-based; conditions: very high concentrations, compound alone
Procedure: Tumor initiation was induced by either oncogene amplification, using a Sleeping Beauty (SB) transposase, or mutation of tumor suppressor genes, using the CRISPR-Cas9 system in day 10 old embryoid bodies (EBs). Plasmids carrying the transposase as well as GFP and the desired oncogenes or expressing Cas9 nuclease were introduced by electroporation. In brief, a mixture of 1 μg DNA and 100 μl nucleofector solution was added to 10 EBs and transferred to a nucleofection cuvette. The Lonza Nucleofector 2b and the A-023 program were used for electroporation/ nucleofection. Thereafter, EBs were transferred into 10 cm dishes containing differentiation media containing vitamin A and embedded into Matrigel 24 hours later. Two different types of tumors were initiated {Bian:2018gs}: Central nervous system primitive neuroectodermal tumors (CNS-PNET) were induced by the overexpression of Myc. Glioblastoma-like tumor group 2 (GBM-2) was caused by mutagenesis of the tumor suppressor genes p53, NF1 and PTEN. All plasmids were designed by Shan Bian {Bian, S. et al. Genetically engineered cerebral organoids model brain tumor formation. Nat. Methods 15, 631-639 (2018)}. Cerebral tumor organoids were treated with different compounds and the survival and growth of transformed as well as untransformed neurons was monitored. Fluorescence labeling of tumor cells allowed clear distinguishability of transformed cells as compared to non-labeled throughout the experiment using brightfield microscopy, as well as fluorescence imaging. The transformed tumor tissue and untransformed neurons within the same organoid was monitored using fluorescence imaging, as well as brightfield microscopy throughout the experiment. At the endpoint of the treatment (d5 or d7 respectively), the number of GFP-positive cells was assessed by flow cytometry. Cerebral (tumor) organoids were enzymatically and mechanically dissociated using 1x trypsin, 35-45 min incubation at 37° C., and gentle shaking. […] Single cells in suspension were counterstained with DAPI or a viability dye (eBioscienceTM Fixable Viability Dye eFluorTM 780, 65-0865-18), and analysed using flow cytometry (BD LSRFortessa HTS Cell Analyzer). The amounts of GFP-positive cells were analyzed. […] Brightfield and green fluorescence images were taken from the same area. Additionally, for image analyses, the Celldiscoverer 7 (Zeiss), a fully integrated high-end automated live cell imaging system, was used. Cerebral organoids were fixed in 4% PFA (room temperature, 1 h), incubated with 30% sucrose (4° C., o/n), OCT (Tissue-tek OCT Compound, […], 4583) embedded and 20 μm sections were cryostat cut (-12/-14° C.). […] Fluorescence Mounting Medium (Dako, S302380) was used for mounting the sample slides. […]

[6] = tested on: human glioblastoma-like neoplastic organoid model; assay: Compound profiling in human glioblastoma-like neoplastic organoid model (p53, NF1, PTEN mutated); format: cell-based; conditions: compound alone
Procedure: Tumor initiation was induced by either oncogene amplification, using a Sleeping Beauty (SB) transposase, or mutation of tumor suppressor genes, using the CRISPR-Cas9 system in day 10 old embryoid bodies (EBs). Plasmids carrying the transposase as well as GFP and the desired oncogenes or expressing Cas9 nuclease were introduced by electroporation. In brief, a mixture of 1 μg DNA and 100 μl nucleofector solution was added to 10 EBs and transferred to a nucleofection cuvette. The Lonza Nucleofector 2b and the A-023 program were used for electroporation/ nucleofection. […] Cerebral tumor organoids were treated with different compounds and the survival and growth of transformed as well as untransformed neurons was monitored. Fluorescence labeling of tumor cells allowed clear distinguishability of transformed cells as compared to non-labeled throughout the experiment using brightfield microscopy, as well as fluorescence imaging. The transformed tumor tissue and untransformed neurons within the same organoid was monitored using fluorescence imaging, as well as brightfield microscopy throughout the experiment. At the endpoint of the treatment (d5 or d7 respectively), the number of GFP-positive cells was assessed by flow cytometry. […] Brightfield and green fluorescence images were taken from the same area. […]

[7] = tested on: colorectal cancer (CRC) cells; conditions: reported in literature; cited from earlier work

| Compound | effect of the chemotherapeutic agent when combined with the double combination ART/DHA/ARS with 5-ALA [1] | further results |
| --- | --- | --- |
| O=NN(CCCl)C(=O)NC1CCCCC1 [lomustine] | enhances | – |
| vinorebine | enhances | – |
| COC(=O)C[C@](O)(CCCC(C)(C)O)C(=O)O[C@@H]1C(OC)=C[C@]23CCCN2CCc2cc4c(cc2[C@H]13)OCO4 [homoharringtonin] | enhances | – |
| N.N.O=C([O-])C1(C(=O)[O-])CCC1.[Pt+2] [carboplatin] | enhances | – |
| COc1cccc2c1C(=O)c1c(O)c3c(c(O)c1C2=O)C[C@@](O)(C(=O)CO)C[C@@H]3O[C@H]1C[C@H](N)[C@H](O)[C@H](C)O1 [doxorubicin] | enhances | – |
| O=C(O)c1cc(Oc2ccc(C(F)(F)F)cc2Cl)ccc1[N+](=O)[O-] [acifluorfen] | – | susceptibility to artemisinin (cell survival) [2]: increased resistance to artemisinin |
| N.N.[Cl][Pt][Cl] [cisplatin] | enhances | – |
| C[C@@H]1CC[C@H]2[C@@H](C)C(=O)O[C@@H]3O[C@@]4(C)CC[C@@H]1[C@]32OO4 [artemisinin] | – | relative growth of wild-type (mCherry_Cre) and knockout (GFP) sister cell clones [3]: selective loss of wild-type (mCherry_Cre) and strong expansion of knockout cells (GFP); ROS levels (DHE) [4]: increased levels of ROS; growth of GFP-positive tumor organoids [5]: notable growth inhibition; survival of untransformed and transformed cells [6]: little effect on the survival of untransformed cells as well as transformed cells; cytotoxicity [7]: specific cytotoxicity |
| COc1cccc2c1C(=O)c1c(O)c3c(c(O)c1C2=O)C[C@@](O)(C(=O)CO)C[C@@H]3O[C@H]1C[C@H](N)[C@@H](O)[C@H](C)O1 [epirubicin] | enhances | – |
| O=c1[nH]cc(F)c(=O)[nH]1 [5-fluorouracil] | enhances | – |
| Cc1c2oc3c(C)ccc(C(=O)N[C@@H]4C(=O)N[C@H](C(C)C)C(=O)N5CCC[C@H]5C(=O)N(C)CC(=O)N(C)[C@@H](C(C)C)C(=O)O[C@@H]4C)c3nc-2c(C(=O)N[C@@H]2C(=O)N[C@H](C(C)C)C(=O)N3CCC[C@H]3C(=O)N(C)CC(=O)N(C)[C@@H](C(C)C)C(=O)O[C@@H]2C)c(N)c1=O [dactinomycin] (I: T[dV]P[Sar][NMeV] / II: T[dV]P[Sar][NMeV]; ester I:1-I:C, II:1-II:C; linker I:N-II:N via Actinocin(9to1)) | enhances | – |
| CC(C)[C@]12O[C@H]1[C@@H]1O[C@]13[C@]1(O[C@H]1C[C@H]1C4=C(CC[C@@]13C)C(=O)OC4)[C@@H]2O [triptolide] | enhances | – |
